Results published in the NIST ThermoML archive (doi:10.1021/je400493x).
Numbers after ± are expanded uncertainties. Values belong to the compound of their own block, whether it stands above or below them.

Tests used:
[1] = 298.15 K, Liquid mixture 1, Drop volume
[2] = 298.15 K; 100 kPa; Liquid
[3] = xn = mol fraction of the nth substance listed; details: 298.15 K, 100 kPa, Liquid

Compound: CC(C)CCOP(=O)(OCCC(C)C)OCCC(C)C [triisopentyl phosphate] + O
interfacial tension ([1]; 101 kPa): 14.4 ± 0.8 mN/m

Compound: CC(C)CCOP(=O)(OCCC(C)C)OCCC(C)C [triisopentyl phosphate]
mass density [2]: 946.95 ± 1.8 kg/m3
viscosity [2]: 4.267 ± 0.076 mPa·s

Compound: CCCCCCCCCCCC [dodecane] + CC(C)CCOP(=O)(OCCC(C)C)OCCC(C)C
mass density ([3]; x2 = 0): 745.29 ± 4.2 kg/m3
viscosity ([3]; x2 = 0): 1.347 ± 0.033 mPa·s

Second part, the compound after the results:

mass density [2]: 745.29 ± 4.2 kg/m3
viscosity [2]: 1.347 ± 0.033 mPa·s
Compound: CCCCCCCCCCCC [dodecane]

interfacial tension ([1]; 100 kPa): 52.6 ± 0.8 mN/m
Compound: CCCCCCCCCCCC [dodecane] + O

mass density ([3]; x1 = 0.0999): 765.49 ± 4 kg/m3
viscosity ([3]; x1 = 0.0999): 1.488 ± 0.035 mPa·s
mass density ([3]; x1 = 0.1998): 785.78 ± 3.7 kg/m3
viscosity ([3]; x1 = 0.1998): 1.678 ± 0.037 mPa·s
mass density ([3]; x1 = 0.3001): 805.91 ± 3.5 kg/m3
viscosity ([3]; x1 = 0.3001): 1.896 ± 0.04 mPa·s
mass density ([3]; x1 = 0.4002): 826.05 ± 3.2 kg/m3
viscosity ([3]; x1 = 0.4002): 2.119 ± 0.043 mPa·s
mass density ([3]; x1 = 0.5001): 846.25 ± 3 kg/m3
viscosity ([3]; x1 = 0.5001): 2.391 ± 0.047 mPa·s
mass density ([3]; x1 = 0.5999): 866.75 ± 2.7 kg/m3
viscosity ([3]; x1 = 0.5999): 2.674 ± 0.051 mPa·s
mass density ([3]; x1 = 0.7002): 888.26 ± 2.5 kg/m3
viscosity ([3]; x1 = 0.7002): 3.015 ± 0.056 mPa·s
mass density ([3]; x1 = 0.7998): 909.12 ± 2.2 kg/m3
viscosity ([3]; x1 = 0.7998): 3.375 ± 0.062 mPa·s
mass density ([3]; x1 = 0.9001): 929.41 ± 2 kg/m3
viscosity ([3]; x1 = 0.9001): 3.804 ± 0.068 mPa·s
mass density ([3]; x1 = 1): 946.95 ± 1.8 kg/m3
viscosity ([3]; x1 = 1): 4.267 ± 0.076 mPa·s
Compound: CC(C)CCOP(=O)(OCCC(C)C)OCCC(C)C [triisopentyl phosphate] + CCCCCCCCCCCC
